Data as given in US12404249B2, “Heterocyclic derivatives and use thereof” (C&C RESEARCH LABORATORIES, priority 2018, dated 2025).

Columns and labels:
STAT3 = target: T1, STAT3 (Homo sapiens, UniProt P40763); test: STAT3 activation inhibition assay (reporter gene assay, LNcaP stable cell line, IL-6 stimulated); format: cell-based; details: LNcaP stable cell line [plasmid STAT3-TA-luc], IL-6 10 ng/mL, 48 hours, luciferase activity; read-out: IC50 (μM) pSTAT3
T1 construct: endogenous in cells; host or cells: LNCaP (human prostate cancer) stably carrying pSTAT3-TA-luc reporter plasmid
Protocol: Cancer cell lines used for evaluating the compounds of the Examples were purchased from ATCC (American Type Culture Collection) or KCLB (Korean Cell Line Bank), and cultured according to the vendor's recommendation. The human prostate cancer cell line stably expressing the STAT3 promoter (LNcaP stable cell line [plasmid STAT3-TA-luc])—which was prepared to evaluate the inhibitory effect of the compounds of the Examples against dimerization of STAT3—was cultured in RPMI1640 (Cat no. 11875, Gibco), 10% fetal bovine serum (Cat no. SH30071.03, Hyclone) and 150 μg/mL G418 solution (Cat no. 04 727 894 001, Roche).
The reporter gene assay of LNcap stable cell line was carried out by the use of RPMI 1640 medium containing 3% DCC-FBS (without G-418). The cell line was dispensed into two (2) white 96-well plates at 30,000 cells/well/50 μL. The cell line was incubated for 24 hours under the condition of 37° C. and 5% CO2, and then the Example compounds of 50 mM DMSO stock were diluted to various concentrations and treated to two (2) white 96-well plates containing cells. Then, IL-6 was treated to a final concentration of 10 ng/mL. After the treatment of Example compounds and IL-6, the cells were cultured for 48 hours under the condition of 37° C. and 5% CO2. After 48 hours, the 96-well plates were observed under a microscope to record the presence or absence of drug precipitation and specificities, and the 96-well plates were kept at room temperature for 30 minutes. Then, in the case of the first 96-well plate, the culture medium on the plate was removed to measure the luciferase activity, and treated with passive lysis buffer at 20 µL/well and shaken for 30 minutes. The luciferase activity was measured on microLUMA LB96P (BERTHOLD) or Centro XS LB 960 (BERTHOLD) instrument using Luciferase assay system (Cat No. E1501, Promega Corporation). In the case of the second 96-well plate, 20 μL of Glo-mix solution was added to measure cytotoxicity by the compounds of the Examples, and the plate was well shaken for 10 minutes and analyzed on microLUMA LB96P (BERTHOLD) instrument using Glo-vial protocol. As a negative control, a 96 well-plate in which culture medium was added but cells were not plated was used. As a positive control, a 96 well-plate in which cells were plated and 0.1% DMSO and culture medium containing stimulation were added was used.
The results of evaluating the inhibitory effects of the compounds of the Examples against dimerization of STAT3 and STAT1 via STAT3 and STAT1 reporter gene assay are represented in Table 1.

[1] = test system: prostate cancer cell line (LNCap); test: Cell growth inhibition assay (Celltiter Glo); format: cell-based; details: Homo sapiens, LNCap cells, 120 hours incubation
Protocol: Cancer cell inhibitory effects by the compounds of the Examples were evaluated as follows. The prostate cancer cell line (LNCap) used was cultured under the condition according to the vendor's recommendation. LNCap was dispensed into a 96-well plate at 10,000 cells/well. After incubation under the condition of 37° C. and 5% CO2 for 24 hours, the Example compounds of 50 mM DMSO stock were diluted to various concentrations and treated to the 96-well plate containing cells. After treatment of the Example compounds, LNCap cells were incubated in an incubator (37° C., 5% CO2) for 120 hours. After each incubation time, the 96-well plate was observed under a microscope to record the presence or absence of drug precipitation and specificities, and the 96-well plate was kept at room temperature for 30 minutes. Then, after addition of 20 μL of Celltiter Glo solution, the 96-well plate was well shaken for 30 minutes. The growth inhibitory activity was measured on microLUMA LB96P (BERTHOLD) instrument using Glo-vial protocol. As a negative control, a 96 well-plate in which culture medium was added but cells were not plated was used. As a positive control, a 96 well-plate in which cells were plated and 0.1% DMSO instead of drugs was added was used. The results of growth inhibitory effects of the Example compounds on prostate cancer cell line are represented in Table 2.

T1 sequence (P40763 whole entry): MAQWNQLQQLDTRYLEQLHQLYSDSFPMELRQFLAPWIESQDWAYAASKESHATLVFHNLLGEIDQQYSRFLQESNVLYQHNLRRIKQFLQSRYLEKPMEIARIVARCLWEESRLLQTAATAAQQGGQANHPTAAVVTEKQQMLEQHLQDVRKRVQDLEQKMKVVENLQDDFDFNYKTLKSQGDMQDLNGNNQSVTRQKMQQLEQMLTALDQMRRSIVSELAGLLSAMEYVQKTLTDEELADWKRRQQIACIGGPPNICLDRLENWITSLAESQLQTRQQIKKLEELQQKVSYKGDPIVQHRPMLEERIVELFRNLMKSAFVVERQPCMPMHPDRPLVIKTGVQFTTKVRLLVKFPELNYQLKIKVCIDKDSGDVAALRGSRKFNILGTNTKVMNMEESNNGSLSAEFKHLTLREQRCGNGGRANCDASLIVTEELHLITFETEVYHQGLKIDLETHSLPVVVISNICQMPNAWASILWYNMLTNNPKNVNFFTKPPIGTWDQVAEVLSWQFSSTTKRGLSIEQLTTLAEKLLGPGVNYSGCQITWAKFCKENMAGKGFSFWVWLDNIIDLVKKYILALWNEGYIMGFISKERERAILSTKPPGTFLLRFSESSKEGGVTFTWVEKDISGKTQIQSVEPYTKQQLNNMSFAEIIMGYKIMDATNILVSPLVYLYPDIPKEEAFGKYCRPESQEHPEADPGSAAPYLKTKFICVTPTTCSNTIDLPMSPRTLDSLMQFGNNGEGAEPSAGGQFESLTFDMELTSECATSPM

| IC50 (STAT3) [µM] | IC50 [1] [µM] | SMILES |
| --- | --- | --- |
| 3.3 | 33.8 | O=[N+]([O-])c1ccc(CCNc2cc(Cl)nc3ccc(Cl)cc23)cc1 [Example 32, 2,6-dichloro-N-(4-nitrophenethyl)quinolin-4-amine] |
| 6 | > 50 | O=[N+]([O-])c1ccc(CCNc2cc(Cl)nc3ccc(Oc4ccccc4)cc23)cc1 [Example 33, 2-chloro-N-(4-nitrophenethyl)-6-phenoxyquinolin-4-amine] |
| 6.9 | 15.7 | O=C(c1ccccc1)c1ccc2nc(Cl)cc(NCCc3ccc([N+](=O)[O-])cc3)c2c1 [Example 34, (2-chloro-4-((4-nitrophenethyl)amino)quinolin-6-yl)(phenyl)methanone] |
| 2.3 | 7.3 | O=[N+]([O-])c1ccc(CCNc2cc(Cl)nc3ccc(O)cc23)cc1 [Example 35, 2-chloro-4-((4-nitrophenethyl)amino)quinolin-6-ol] |
| 0.023 | 0.093 | O=[N+]([O-])c1ccc(CCNc2ncnc3ccccc23)cc1 [Example 36, N-(4-nitrophenethyl)quinazolin-4-amine] |
| 20.3 | 10.6 | CCOC(=O)COc1ccc2nc(Cl)cc(NCCc3ccc([N+](=O)[O-])cc3)c2c1 [Example 37, ethyl 2-((2-chloro-4-((4-nitrophenethyl)amino)quinolin-6-yl)oxy)acetate] |
| 0.17 | 0.18 | CS(=O)(=O)Nc1ccc(CCNc2ncnc3ccccc23)cc1 [Example 38, N-(4-(2-(quinazolin-4-ylamino)ethyl)phenyl)methanesulfonamide] |
| > 50 | > 50 | NC(=O)COc1ccc2nc(Cl)cc(NCCc3ccc([N+](=O)[O-])cc3)c2c1 [Example 39, 2-((2-chloro-4-((4-nitrophenethyl)amino)quinolin-6-yl)oxy)acetamide] |
| > 50 | > 50 | O=C(O)c1ccc2nc(Cl)cc(NCCc3ccc([N+](=O)[O-])cc3)c2c1 [Example 40, 2-chloro-4-((4-nitrophenethyl)amino)quinolin-6-carboxylic acid] |
| 9.8 | > 50 | NC(=O)c1ccc2nc(Cl)cc(NCCc3ccc([N+](=O)[O-])cc3)c2c1 [Example 41, 2-chloro-4-((4-nitrophenethyl)amino)quinolin-6-carboxamide] |
| > 50 | > 50 | O=C(c1ccc2nc(Cl)cc(NCCc3ccc([N+](=O)[O-])cc3)c2c1)N1CCOCC1 [Example 42, (2-chloro-4-((4-nitrophenethyl)amino)quinolin-6-yl)(morpholino)methanone] |
| > 50 | > 50 | O=C(O)COc1ccc2nc(Cl)cc(NCCc3ccc([N+](=O)[O-])cc3)c2c1 [Example 43, 2-((2-chloro-4-((4-nitrophenethyl)amino)quinolin-6-yl)oxy)acetic acid] |
| > 50 | > 50 | NNC(=O)c1ccc2nc(Cl)cc(NCCc3ccc([N+](=O)[O-])cc3)c2c1 [Example 44, 2-chloro-4-((4-nitrophenethyl)amino)quinolin-6-carbohydrazide] |
| 13.1 | 13.1 | CS(=O)(=O)Nc1ccc(CCNc2cc(Cl)nc3c(F)cccc23)cc1 [Example 45, N-(4-(2-((2-chloro-8-fluoroquinolin-4-yl)amino)ethyl)phenyl)methanesulfonamide] |
| 33.7 | 18.9 | CS(=O)(=O)Nc1ccc(CCNc2ccnc3c(F)cccc23)cc1 [Example 46, N-(4-(2-((8-fluoroquinolin-4-yl)amino)ethyl)phenyl)methanesulfonamide] |
| > 50 | > 50 | O=[N+]([O-])c1ccc(CCNc2nc(Cl)nc3[nH]cnc23)cc1 [Example 47, 2-chloro-N-(4-nitrophenethyl)-9H-purin-6-amine] |

| IC50 (STAT3) [µM] | IC50 [1] [µM] | SMILES |
| --- | --- | --- |
| 7.3 | 14.2 | O=[N+]([O-])c1ccc(CCNc2nc(C(F)(F)F)nc3ccccc23)cc1 [Example 48, N-(4-nitrophenethyl)-2-(trifluoromethyl)quinazolin-4-amine] |
| 5.6 | 14.1 | O=[N+]([O-])c1ccc(CCNc2cc(C(F)(F)F)nc3ccccc23)cc1 [Example 49, N-(4-nitrophenethyl)-2-(trifluoromethyl)quinolin-4-amine] |
| 13.9 | 23.1 | O=[N+]([O-])c1ccc(CCNc2nc(F)nc3[nH]cnc23)cc1 [Example 50, 2-fluoro-N-(4-nitrophenethyl)-9H-purin-6-amine] |
| 24.1 | 27.7 | CNc1cc(NCCc2ccc([N+](=O)[O-])cc2)c2ccccc2n1 [Example 51, N^2-methyl-N^4-(4-nitrophenethyl)quinolin-2,4-diamine 2,2,2-trifluoroacetate] |
| 3.1 | 6.6 | CS(=O)(=O)Nc1ccc(CCNc2cc(C(F)(F)F)nc3ccccc23)cc1 [Example 52, N-(4-(2-((2-(trifluoromethyl)quinolin-4-yl)amino)ethyl)phenyl)methanesulfonamide] |
| 3 | 15.7 | CS(=O)(=O)Nc1ccc(CCNc2nc(C(F)(F)F)nc3ccccc23)cc1 [Example 53, N-(4-(2-((2-(trifluoromethyl)quinazolin-4-yl)amino)ethyl)phenyl)methanesulfonamide] |
| 11 | 14.1 | O=[N+]([O-])c1ccc(CCNc2ncnc3ccc(-c4ccc(Cl)cc4Cl)cc23)cc1 [Example 54, 6-(2,4-dichlorophenyl)-N-(4-nitrophenethyl)quinazolin-4-amine] |
| > 50 | > 50 | O=[N+]([O-])c1ccc(CCNc2cc(Cl)nc3ccc(-c4ccc(Cl)cc4Cl)cc23)cc1 [Example 55, 2-chloro-6-(2,4-dichlorophenyl)-N-(4-nitrophenethyl)quinolin-4-amine] |
| 6.6 | 13.9 | CS(=O)(=O)Nc1ccc(CCNc2ncnc3ccc(-c4ccc(Cl)cc4Cl)cc23)cc1 [Example 56, N-(4-(2-((6-(2,4-dichlorophenyl)quinazolin-4-yl)amino)ethyl)phenyl)methanesulfonamide] |
| 17.9 | 8.6 | CS(=O)(=O)Nc1ccc(CCNc2cc(Cl)nc3ccc(-c4ccc(Cl)cc4Cl)cc23)cc1 [Example 57, N-(4-(2-((2-chloro-6-(2,4-dichlorophenyl)quinolin-4-yl)amino)ethyl)phenyl)methanesulfonamide] |
| > 50 | > 50 | CS(=O)(=O)Nc1ccc(CNC(=O)c2cc(Cl)nc3ccccc23)cc1 [Example 58, 2-chloro-N-(4-(methylsulfonamido)benzyl)quinolin-4-carboxamide] |
| 0.35 | 0.16 | O=[N+]([O-])c1ccc(C(F)(F)CNc2ncnc3ccccc23)cc1 [Example 59, N-(2,2-difluoro-2-(4-nitrophenyl)ethyl)quinazolin-4-amine] |
| 14 | 29.5 | O=S(=O)(Nc1ccc(CCNc2ncnc3ccccc23)cc1)C(F)(F)F [Example 60, 1,1,1-trifluoro-N-(4-(2-(quinazolin-4-ylamino)ethyl)phenyl)methanesulfonamide] |
| 0.053 | 0.19 | O=[N+]([O-])c1ccc(CCNc2ncnc3ccc(F)cc23)cc1 [Example 61, 6-fluoro-N-(4-nitrophenethyl)quinazolin-4-amine] |
| 12.1 | 23.5 | O=[N+]([O-])c1ccc(CCNc2cncc3ccccc23)cc1 [Example 62, N-(4-nitrophenethyl)isoquinolin-4-amine] |
